We go through 47 compounds from ChEMBL document CHEMBL5104187, “Discovery of 2-(1-(3-Chloro-4-cyanophenyl)-1H-pyrazol-3-yl)acetamides as Potent, Selective, and Orally Available Antagonists Targeting the Androgen Receptor” (J Med Chem, 2022).

In series [1] the target is T1, Androgen receptor (Homo sapiens, UniProt P10275).
T1 sequence (P10275 whole entry): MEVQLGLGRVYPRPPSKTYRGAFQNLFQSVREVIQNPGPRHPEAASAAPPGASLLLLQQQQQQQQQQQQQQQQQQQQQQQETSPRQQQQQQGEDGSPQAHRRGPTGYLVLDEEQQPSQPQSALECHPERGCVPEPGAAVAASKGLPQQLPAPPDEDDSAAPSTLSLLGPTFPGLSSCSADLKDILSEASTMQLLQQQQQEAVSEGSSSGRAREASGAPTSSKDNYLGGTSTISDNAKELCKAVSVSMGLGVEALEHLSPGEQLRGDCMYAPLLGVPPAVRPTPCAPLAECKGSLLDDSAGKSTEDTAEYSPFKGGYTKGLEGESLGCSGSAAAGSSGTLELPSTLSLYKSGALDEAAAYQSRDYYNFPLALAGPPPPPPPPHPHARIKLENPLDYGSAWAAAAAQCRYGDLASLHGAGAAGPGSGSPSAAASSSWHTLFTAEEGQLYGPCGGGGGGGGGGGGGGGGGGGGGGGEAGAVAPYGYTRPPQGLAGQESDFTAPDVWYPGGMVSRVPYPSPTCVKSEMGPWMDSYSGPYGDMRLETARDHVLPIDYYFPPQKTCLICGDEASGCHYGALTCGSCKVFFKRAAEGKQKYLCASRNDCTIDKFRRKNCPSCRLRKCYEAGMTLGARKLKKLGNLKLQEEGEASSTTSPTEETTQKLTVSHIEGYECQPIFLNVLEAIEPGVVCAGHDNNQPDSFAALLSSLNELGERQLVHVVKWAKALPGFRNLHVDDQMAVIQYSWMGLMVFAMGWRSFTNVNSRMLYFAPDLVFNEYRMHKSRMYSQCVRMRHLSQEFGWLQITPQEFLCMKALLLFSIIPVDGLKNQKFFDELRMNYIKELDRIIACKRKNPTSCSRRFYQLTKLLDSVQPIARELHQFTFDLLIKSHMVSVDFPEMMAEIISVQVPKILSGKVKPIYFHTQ
As to the kind of experiment: Antagonist activity at androgen receptor (unknown origin) in human LNCap-ARR2PB-eGFP cells by measuring fluorescence intensity measured after 3 days by transcriptional assay. It is filed as cell-based.

The subject of series [2] is LNCaP. As to the kind of experiment: Cytotoxicity against human LNCAP cells assessed as inhibition of cell proliferation by MTT assay. Type of series: functional, cell-based.
A short description of series [3]: Cytotoxicity against human Chang liver cells assessed as inhibition of cell proliferation by MTT assay. It is filed as toxicity, cell-based.
A short description of series [4]: Cytotoxicity against human GES1 cells assessed as inhibition of cell proliferation by MTT assay. It is filed as toxicity, cell-based. (In general: Tetrazolium dyes change colour on reduction, which living cells bring about.)
Series [5] is described as follows: Inhibition of PSA secretion in human LNCaP ARR2PB-eGFP cells measured after 3 days by immuno assay. As to conditions: 72 h. It is filed as functional, cell-based.
Series [6] can be described thus: Antagonist activity at mineralocorticoid receptor (unknown origin) transfected in PC-3 cells assessed as inhibition of […]-stimulated transcriptional activity after 3 days by dual luciferase reporter assay. It is filed as cell-based. The conditions noted are these: Homo sapiens, PC-3, 72 h.
Series [7] addresses T1, Androgen receptor.
For series [8], the target named is T2, Androgen receptor (Homo sapiens, UniProt P10275, F877L). As to the kind of experiment: Antagonist activity at androgen receptor F877L mutant (unknown origin) expressed in PC-3 cells assessed as inhibition of transcriptional activity measured after 24 hrs by dual luciferase assay. Type of series: cell-based.
T2 sequence (P10275 whole entry F877L): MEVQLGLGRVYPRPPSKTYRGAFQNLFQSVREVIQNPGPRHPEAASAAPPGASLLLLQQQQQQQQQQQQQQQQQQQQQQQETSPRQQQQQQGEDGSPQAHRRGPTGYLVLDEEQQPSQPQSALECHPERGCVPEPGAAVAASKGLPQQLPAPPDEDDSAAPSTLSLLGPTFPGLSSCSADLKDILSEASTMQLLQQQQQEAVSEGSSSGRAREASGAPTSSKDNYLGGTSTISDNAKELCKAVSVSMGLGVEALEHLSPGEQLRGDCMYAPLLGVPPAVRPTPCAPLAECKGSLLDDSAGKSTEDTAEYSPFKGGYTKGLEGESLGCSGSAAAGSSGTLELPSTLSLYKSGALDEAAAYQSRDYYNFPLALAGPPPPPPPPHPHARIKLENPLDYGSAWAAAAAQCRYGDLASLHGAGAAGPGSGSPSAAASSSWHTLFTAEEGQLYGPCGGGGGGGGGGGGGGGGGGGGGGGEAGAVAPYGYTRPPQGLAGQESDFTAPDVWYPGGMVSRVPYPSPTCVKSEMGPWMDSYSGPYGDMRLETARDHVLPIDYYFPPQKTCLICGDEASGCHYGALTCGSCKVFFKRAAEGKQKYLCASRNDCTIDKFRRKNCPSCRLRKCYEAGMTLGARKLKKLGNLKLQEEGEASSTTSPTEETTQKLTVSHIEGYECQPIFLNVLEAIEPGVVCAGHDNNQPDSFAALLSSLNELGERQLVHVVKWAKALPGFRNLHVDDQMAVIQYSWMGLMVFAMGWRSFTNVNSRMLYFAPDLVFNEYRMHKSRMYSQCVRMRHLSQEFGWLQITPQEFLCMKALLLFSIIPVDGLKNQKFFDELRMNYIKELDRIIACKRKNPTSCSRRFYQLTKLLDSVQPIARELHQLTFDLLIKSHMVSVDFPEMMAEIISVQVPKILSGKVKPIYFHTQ
Series [9] concerns the target T3, Androgen receptor (Homo sapiens, UniProt P10275, F877L/T878A). Kind of series: Antagonist activity at androgen receptor F877L/T877A dual mutant (unknown origin) expressed in PC-3 cells assessed as inhibition of transcriptional activity measured after 24 hrs by dual luciferase assay. It is filed as cell-based.
Series [10] addresses T2, Androgen receptor. As to the kind of experiment: Antagonist activity at androgen receptor F877L mutant in human PC-3 cells assessed as inhibition of transcriptional activity measured after 24 hrs by luminescence based microplate reader assay. Type of series: cell-based.
Series [11] deals with T3, Androgen receptor. Kind of series: Antagonist activity at androgen receptor F876L/T877A mutant in human PC-3 cells assessed as inhibition of transcriptional activity measured after 24 hrs by luminescence based microplate reader assay. Type of series: cell-based.
Series [12] is described as follows: Antagonist activity at androgen receptor T878G mutant (unknown origin) expressed in PC-3 cells assessed as inhibition of transcriptional activity measured after 24 hrs by dual luciferase assay. Type of series: cell-based. The conditions noted are these: Homo sapiens, PC-3, 24 h.
Series [13] concerns the target T4, Androgen receptor (Homo sapiens) (UniProt P10275).
T4 sequence (whole entry): T1 sequence (P10275 whole entry)
Kind of series: Antagonist activity at human AR AF2 assessed as inhibition of fluorescent-labelled D11-FxxLF peptide Co-activator to receptor by TR-FRET assay. As to conditions: filed as antagonist. Background: In TR-FRET formats the signal depends on donor and acceptor labels being close together.

Activity calls are given as the source filed them. No cut-off for these calls is given here.

One may read the IC50 as the concentration needed to halve the response being measured. As a reminder, the Kd is a measure of binding affinity in units of concentration. Read a high Kd as weaker binding.

T3 sequence (P10275 whole entry F877L/T878A): as the sequence (P10275 whole entry F877L) above, with T878A counted along it

The compound `N#Cc1ccc(-n2ccc(CCCNC(=O)c3ccc([N+](=O)[O-])cc3)n2)cc1C(F)(F)F` returned an IC50 in series [1] of over 25000 nM.

On to `N#Cc1ccc(-n2ccc(CC(=O)Nc3ccc(F)cc3)n2)cc1Cl`, for which 220 nM corresponded to half-maximal inhibition in [1] (IC50).

Regarding `N#Cc1ccc(C(=O)NCCCc2ccn(-c3ccc(C#N)c(C(F)(F)F)c3)n2)cc1`, the IC50 in series [1] was over 25000 nM.

As to `N#Cc1ccc(-n2ccc(C(=O)Nc3ccc(F)nc3)n2)cc1C(F)(F)F`, in [1], the IC50 was over 25000 nM.

As to `N#Cc1ccc(-n2ccc(CNC(=O)c3ccc(Cl)cc3)n2)cc1C(F)(F)F`, the IC50 in series [1] is 1150 nM.

The compound `N#Cc1ccc(-n2ccc(CC(=O)Nc3ccncc3)n2)cc1C(F)(F)F` yielded an IC50 in series [1] of over 25000 nM.

Take `Cc1cn(-c2ccc(C#N)c(C(F)(F)F)c2)nc1CNC(=O)c1ccc([N+](=O)[O-])cc1`: inhibition in series [1] was half-maximal at 450 nM (IC50).

As to `Cc1ccc(NC(=O)Cc2ccn(-c3ccc(C#N)c(C(F)(F)F)c3)n2)cc1`, in series [1], inhibition was half-maximal at 4530 nM (IC50).

Turning to `O=C(Cc1ccn(-c2ccc([N+](=O)[O-])c(C(F)(F)F)c2)n1)Nc1ccc(F)nc1`, half-maximal inhibition in series [1] (IC50) required 360 nM.

For the compound `N#Cc1ccc(-n2ccc(CNS(=O)(=O)c3ccc(F)cc3)n2)cc1C(F)(F)F`, the IC50 in series [1] is over 25000 nM.

`CNC(=O)c1ccc(N2C(=S)N(c3ccc(C#N)c(C(F)(F)F)c3)C(=O)C2(C)C)cc1F` [ENZALUTAMIDE]: the IC50 in series [2] came to 26.3 µM; in series [3], 64.7 µM; in series [4], 96.9 µM; in series [5], 480 nM; in series [6], 0.13 µM.

For the compound `N#Cc1cc(NC(=O)Cc2ccn(-c3ccc(C#N)c(C(F)(F)F)c3)n2)ccc1F`, half-maximal inhibition in series [1] (IC50) was put at 6340 nM.

With `N#Cc1ccc(-n2ccc(CC(=O)Nc3ccc(F)nc3)n2)cc1C(F)(F)F`, the IC50 was 140 nM in series [1]; 8.84 µM in series [2]; over 1000 µM in series [3]; over 1000 µM in [4]; 1750 nM in [5]; 16.3 µM in [6]. The IC50 in series [8] was determined as 1310 nM; in series [9], 1120 nM; in [10], 1310 nM; in series [11], 1120 nM; in [12], 310 nM. The compound further gave a Kd in series [7] of 8.99 µM. In series [13], the outcome was Active.

In series [1], `N#Cc1ccc(-n2ccc(CC(=O)Nc3ccc(F)cn3)n2)cc1Cl` came in with an IC50 of 170 nM.

As to `N#Cc1ccc(-n2ccc(CC(=O)Nc3ccc(F)cn3)n2)cc1C(F)(F)F`, 340 nM corresponded to half-maximal inhibition in [1] (IC50).

Regarding `O=C(Cc1ccn(-c2ccc([N+](=O)[O-])c(C(F)(F)F)c2)n1)Nc1ccc(F)cc1`, the IC50 in series [1] was 340 nM.

In series [1], `N#Cc1ccc(NC(=O)c2ccn(-c3ccc(C#N)c(C(F)(F)F)c3)n2)cc1` displayed an IC50 of over 25000 nM.

In series [1], `N#Cc1ccc(-n2ccc(CNC(=O)c3ccc(F)nc3)n2)cc1C(F)(F)F` came in with a concentration for half-maximal inhibition (IC50) of 780 nM.

Take `N#Cc1ccc(-n2cc(-c3ccccc3)c(CNC(=O)c3ccc(F)cc3)n2)cc1C(F)(F)F`: the IC50 in [1] is over 25000 nM.

The compound `N#Cc1ccc(-n2ccc(CC(=O)Nc3ccc(F)c(F)c3)n2)cc1C(F)(F)F` displayed an IC50 in [1] of 210 nM.

In series [1], `N#Cc1ccc(-n2cc(C(F)(F)F)c(CNC(=O)c3ccc(F)cc3)n2)cc1C(F)(F)F` yielded an IC50 of 16200 nM.

`N#Cc1ccc(-n2ccc(CCNC(=O)c3ccc([N+](=O)[O-])cc3)n2)cc1C(F)(F)F` registered an IC50 in [1] of over 25000 nM.

`N#Cc1ccc(-n2ccc(CC(=O)Nc3ccc([N+](=O)[O-])cc3)n2)cc1C(F)(F)F` showed an IC50 in [1] of 80 nM.

Consider `Cc1cn(-c2ccc(C#N)c(C(F)(F)F)c2)nc1CNC(=O)c1ccc(C#N)cc1`, for which it took 14900 nM to reach half-maximal inhibition in series [1] (IC50).

`N#Cc1ccc(-n2ccc(NC(=O)c3ccc(F)cc3)n2)cc1C(F)(F)F` returned an IC50 in [1] of over 25000 nM.

Turning to `N#Cc1ccc(-n2ccc(CNC(=O)c3ccc(F)cc3)n2)cc1C(F)(F)F`, the IC50 in [1] was determined as 760 nM.

With `CNC(=O)c1ccc(C(=O)NCc2ccn(-c3ccc(C#N)c(C(F)(F)F)c3)n2)cc1F`, in series [1], the IC50 was over 25000 nM.

`N#Cc1ccc(C(=O)NCCc2ccn(-c3ccc(C#N)c(C(F)(F)F)c3)n2)cc1` gave an IC50 in [1] of over 25000 nM.

For `N#Cc1ccc(C(=O)NCc2ccn(-c3ccc(C#N)c(C(F)(F)F)c3)n2)cc1`, half-maximal inhibition in series [1] (IC50) required 300 nM.

As to `N#Cc1ccc(-n2ccc(NC(=O)Nc3ccc(F)cc3)n2)cc1C(F)(F)F`, the IC50 in series [1] is over 25000 nM.

In the case of `CC(O)c1cc(C(=O)N[C@H](C)Cn2ccc(-c3ccc(C#N)c(Cl)c3)n2)n[nH]1` (stereo not given in full), in series [12], the IC50 stood at 690 nM.

`N#Cc1ccc(-n2ccc(CCCNC(=O)c3ccc(F)cc3)n2)cc1C(F)(F)F` yielded an IC50 in [1] of over 25000 nM.

The compound `COc1ccc(NC(=O)Cc2ccn(-c3ccc(C#N)c(C(F)(F)F)c3)n2)cc1` yielded an IC50 in [1] of 9200 nM.

Take `N#Cc1ccc(-n2ccc(CNC(=O)Nc3ccc(F)cc3)n2)cc1C(F)(F)F`: in series [1], the IC50 is over 25000 nM.

With `N#Cc1ccc(-n2ccc(CNC(=O)c3ccc(F)cn3)n2)cc1C(F)(F)F`, the IC50 in [1] was determined as 5820 nM.

Regarding `N#Cc1ccc(-n2ccc(CCNC(=O)c3ccc(F)cc3)n2)cc1C(F)(F)F`, in series [1], the IC50 was over 25000 nM.

The compound `N#Cc1ccc(NC(=O)Cc2ccn(-c3ccc(C#N)c(C(F)(F)F)c3)n2)cc1` had an IC50 in series [1] of 50 nM.

In turn, `CC(C)(O)c1ccc(C(=O)NCc2ccn(-c3ccc(C#N)c(C(F)(F)F)c3)n2)cc1` registered an IC50 in series [1] of over 25000 nM.

In turn, `N#Cc1ccc(-n2ccc(CNC(=O)c3ccc([N+](=O)[O-])cc3)n2)cc1C(F)(F)F` yielded a concentration for half-maximal inhibition (IC50) in [1] of 1850 nM.

In series [1], `O=C(Cc1ccn(-c2ccc([N+](=O)[O-])c(C(F)(F)F)c2)n1)Nc1ccc(F)cn1` showed an IC50 of 2570 nM.

In turn, `N#Cc1ccc(-n2ccc(C(=O)Nc3ccc(F)cn3)n2)cc1C(F)(F)F` displayed an IC50 in series [1] of over 25000 nM.

In series [1], `N#Cc1ccc(-n2ccc(C(=O)Nc3ccncc3)n2)cc1C(F)(F)F` yielded an IC50 of over 25000 nM.

In turn, `Cc1cn(-c2ccc(C#N)c(C(F)(F)F)c2)nc1CNC(=O)c1ccc(F)cc1` yielded an IC50 in series [1] of 220 nM.

With `CC(O)c1cc(C(=O)NCc2ccn(-c3ccc(C#N)c(C(F)(F)F)c3)n2)n[nH]1` (stereo not given), the IC50 in series [1] is over 25000 nM.

`N#Cc1ccc(-n2ccc(CNC(=O)c3ccc(C(F)(F)F)cc3)n2)cc1C(F)(F)F` yielded an IC50 in series [1] of over 25000 nM.

Regarding `N#Cc1ccc(-n2ccc(C(=O)Nc3ccc(F)cc3)n2)cc1C(F)(F)F`, the IC50 in series [1] is over 25000 nM.

On to `N#Cc1ccc(-n2ccc(CC(=O)Nc3ccc(F)cc3)n2)cc1C(F)(F)F`, for which the IC50 in [1] is 120 nM; in [2], 5.85 µM; in series [3], over 1000 µM; in series [4], over 1000 µM; in series [5] it was 3910 nM; in [6], 4.43 µM. For the same compound, the IC50 in series [8] stood at 910 nM; in series [9] it was 250 nM; in [10] it was 910 nM; in [11] it was 250 nM; in series [12], 80 nM. Also, the Kd in series [7] is 10 µM. The outcome in series [13] was Active.
